Activity calls are given as the source filed them. No cut-off for these calls is given here.
Experiments:
MCF7 [1] = assay: Anti-proliferative activity against ERalpha positive human MCF7 cells incubated for 96 hrs by CCK8 assay; settings: MCF7, 96 h
[2] = Anti-proliferative activity against human MCF-10A cells incubated for 96 hrs by CCK8 assay; type: toxicity, cell-based
Aromatase = target: T1, Aromatase (Homo sapiens, UniProt P11511); assay: Inhibition of recombinant human aromatase using ARO substrate/NADP+ mixture by fluorescence assay
T1 sequence (P11511 whole entry): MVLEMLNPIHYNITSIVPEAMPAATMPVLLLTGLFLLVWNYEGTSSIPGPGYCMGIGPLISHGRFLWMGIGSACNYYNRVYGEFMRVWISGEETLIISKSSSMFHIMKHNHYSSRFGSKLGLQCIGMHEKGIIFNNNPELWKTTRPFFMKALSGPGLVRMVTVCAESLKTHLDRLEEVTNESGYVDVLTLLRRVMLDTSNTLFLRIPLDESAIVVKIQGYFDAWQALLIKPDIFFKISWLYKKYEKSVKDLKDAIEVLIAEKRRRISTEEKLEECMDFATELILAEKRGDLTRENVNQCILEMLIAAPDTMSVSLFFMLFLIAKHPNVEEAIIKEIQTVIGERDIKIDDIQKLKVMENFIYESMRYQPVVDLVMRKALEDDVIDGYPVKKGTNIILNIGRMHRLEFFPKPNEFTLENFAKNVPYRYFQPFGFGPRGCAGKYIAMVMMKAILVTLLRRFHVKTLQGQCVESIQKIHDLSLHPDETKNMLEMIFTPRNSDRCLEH

[3] = target: von Hippel-Lindau disease tumor suppressor/Aromatase (Homo sapiens, UniProt P11511+P40337); assay: PROTAC activity at human ARO/VHL E3 ligase in human MCF-7 cells assessed as degradation of ARO at 1 uM incubated for 24 hrs by Western blot analysis; type: cell-based; settings: mcf7, 24 h
Sequence of von Hippel-Lindau disease tumor suppressor/Aromatase (P40337 whole entry, one chain of several, the tested form may be a part): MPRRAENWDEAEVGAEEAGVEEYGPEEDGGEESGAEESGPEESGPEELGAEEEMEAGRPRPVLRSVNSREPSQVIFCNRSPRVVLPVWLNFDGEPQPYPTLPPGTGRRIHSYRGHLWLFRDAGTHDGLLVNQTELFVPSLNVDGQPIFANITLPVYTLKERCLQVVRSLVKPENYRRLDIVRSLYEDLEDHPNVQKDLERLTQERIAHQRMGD

MCF7 [4] = assay: Antiproliferative activity against human resistant MCF7 cells harboring ERalpha Y537S mutant at LBD assessed as cell viability incubated for 96 hrs by CCK8 assay; settings: MCF7, 96 h
MCF7 [5] = assay: Antiproliferative activity against human resistant MCF7 cells harboring ERalpha D538G mutant at LBD assessed as cell viability incubated for 96 hrs by CCK8 assay; settings: MCF7, 96 h
MCF7 [6] = assay: Antiproliferative activity against human resistant MCF7 cells harboring EGFR assessed as cell viability incubated for 96 hrs by CCK8 assay; settings: MCF7, 96 h
MCF7 [7] = assay: In vivo PROTAC activity in ERalpha/VHL E3 ligase in human MCF7 cell xenografted in Balb/c mouse model assessed as reduction in ERalpha level in tumor at 5 mg/kg, ip every other day measured upto 20 days; type: functional, organism-based; settings: time <= 20.0 day
MCF7 [8] = assay: In vivo PROTAC activity in aromatase/VHL E3 ligase in human MCF7 cell xenografted in Balb/c mouse model assessed as reduction in ARO level in tumor at 5 mg/kg, ip every other day measured upto 20 days; type: functional, organism-based; settings: time <= 20.0 day
Estrogen receptor beta = Estrogen receptor beta (Homo sapiens, UniProt Q92731); assay: Binding affinity to human ERbeta assessed as inhibition constant incubated under dark condition for 2 hrs by competitive fluorometric binding assay
Sequence of Estrogen receptor beta (Q92731 whole entry): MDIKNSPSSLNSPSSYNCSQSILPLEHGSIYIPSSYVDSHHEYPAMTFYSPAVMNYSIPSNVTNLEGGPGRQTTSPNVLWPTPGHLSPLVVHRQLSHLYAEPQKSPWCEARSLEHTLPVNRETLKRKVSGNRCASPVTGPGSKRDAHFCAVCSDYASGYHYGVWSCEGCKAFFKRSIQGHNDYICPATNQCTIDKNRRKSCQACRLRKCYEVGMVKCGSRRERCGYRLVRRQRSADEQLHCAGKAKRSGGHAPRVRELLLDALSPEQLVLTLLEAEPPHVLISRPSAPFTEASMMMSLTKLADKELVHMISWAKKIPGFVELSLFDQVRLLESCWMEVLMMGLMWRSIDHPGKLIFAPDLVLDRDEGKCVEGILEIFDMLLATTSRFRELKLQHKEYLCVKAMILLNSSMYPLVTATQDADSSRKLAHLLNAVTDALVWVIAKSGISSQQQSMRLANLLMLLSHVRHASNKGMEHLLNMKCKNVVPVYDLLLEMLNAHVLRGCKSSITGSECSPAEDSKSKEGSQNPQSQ

SMILES	IC50 (MCF7 [1])	IC50 at 96 h [2]	IC50 (Aromatase)	Activity [3]	IC50 (MCF7 [4])	IC50 (MCF7 [5])	IC50 (MCF7 [6])	Activity (MCF7 [7])	Activity (MCF7 [8])	Ki (Estrogen receptor beta)
Cc1ncsc1-c1ccc([C@H](C)NC(=O)[C@@H]2C[C@@H](O)CN2C(=O)[C@@H](NC(=O)CCCOc2ccc(N(CC(F)(F)F)S(=O)(=O)C3CC4OC3C(c3ccc(-n5ccnc5)cc3)=C4c3ccc(O)cc3)cc2)C(C)(C)C)cc1 (stereo partly specified)	0.13 µM	> 100 µM	1.2 µM	Active	> 100 µM	> 100 µM	> 100 µM			
C[C@]12CC[C@@H]3c4ccc(O)cc4C[C@@H](CCCCCCCCC[S+]([O-])CCCC(F)(F)C(F)(F)F)[C@H]3[C@@H]1CC[C@@H]2O (stereo partly specified) [FULVESTRANT]		> 100 µM	> 100 µM					Active	Active	
Cc1ncsc1-c1ccc([C@H](C)NC(=O)[C@@H]2C[C@@H](O)CN2C(=O)[C@@H](NC(=O)CCCCCCCOc2ccc(N(CC(F)(F)F)S(=O)(=O)C3CC4OC3C(c3ccc(-n5ccnc5)cc3)=C4c3ccc(O)cc3)cc2)C(C)(C)C)cc1 (stereo partly specified)	1.8 µM	> 100 µM	10 µM	Active	30 µM	29 µM	4.7 µM			
Cc1ncsc1-c1ccc([C@H](C)NC(=O)[C@@H]2C[C@@H](O)CN2C(=O)[C@@H](NC(=O)CCCCCCOc2ccc(N(CC(F)(F)F)S(=O)(=O)C3CC4OC3C(c3ccc(-n5ccnc5)cc3)=C4c3ccc(O)cc3)cc2)C(C)(C)C)cc1 (stereo partly specified)	2.3 µM	> 100 µM	5.2 µM	Active	> 100 µM	1.7 µM	5.5 µM			
Cc1ncsc1-c1ccc([C@H](C)NC(=O)[C@@H]2C[C@@H](O)CN2C(=O)[C@@H](NC(=O)CCCCCCCCCCOc2ccc(N(CC(F)(F)F)S(=O)(=O)C3CC4OC3C(c3ccc(-n5ccnc5)cc3)=C4c3ccc(O)cc3)cc2)C(C)(C)C)cc1 (stereo partly specified)	4.9 µM	> 100 µM	> 100 µM	Active	22 µM	> 100 µM	> 100 µM			
CC/C(=C(\c1ccc(O)cc1)c1ccc(OCCN(C)C)cc1)c1ccccc1 [AFIMOXIFENE]		21 µM	> 100 µM							
Cc1ncsc1-c1ccc([C@H](C)NC(=O)[C@@H]2C[C@@H](O)CN2C(=O)[C@@H](NC(=O)CCCCCCCCCCCOc2ccc(N(CC(F)(F)F)S(=O)(=O)C3CC4OC3C(c3ccc(-n5ccnc5)cc3)=C4c3ccc(O)cc3)cc2)C(C)(C)C)cc1 (stereo partly specified)	2 µM	> 100 µM	> 100 µM	Active	3.5 µM	0.23 µM	> 100 µM			> 79 µM
O=C(COc1cccc2c1C(=O)N(C1CCC(=O)NC1=O)C2=O)NCCCCCOc1ccc(N(CC(F)(F)F)S(=O)(=O)C2CC3OC2C(c2ccc(-n4ccnc4)cc2)=C3c2ccc(O)cc2)cc1 (stereo unspecified)	9.3 µM	> 100 µM	> 100 µM		23 µM	3.6 µM	23 µM			> 79 µM
Cc1ncsc1-c1ccc([C@H](C)NC(=O)[C@@H]2C[C@@H](O)CN2C(=O)[C@@H](NC(=O)CCCCCCCCCOc2ccc(N(CC(F)(F)F)S(=O)(=O)C3CC4OC3C(c3ccc(-n5ccnc5)cc3)=C4c3ccc(O)cc3)cc2)C(C)(C)C)cc1 (stereo partly specified)	0.33 µM	> 100 µM	> 100 µM	Active	100 µM	> 100 µM	> 100 µM			> 79 µM
Cc1ncsc1-c1ccc([C@H](C)NC(=O)[C@@H]2C[C@@H](O)CN2C(=O)[C@@H](NC(=O)COCCOc2ccc(N(CC(F)(F)F)S(=O)(=O)C3CC4OC3C(c3ccc(-n5ccnc5)cc3)=C4c3ccc(O)cc3)cc2)C(C)(C)C)cc1 (stereo partly specified)	1.5 µM	> 100 µM	3.9 µM	Active	15 µM	> 100 µM	> 100 µM			> 79 µM
COc1ccc(N(CC(F)(F)F)S(=O)(=O)C2CC3OC2C(c2ccc(O)cc2)=C3c2ccc(O)cc2)cc1 (stereo unspecified)			> 100 µM							
O=C(COc1cccc2c1C(=O)N(C1CCC(=O)NC1=O)C2=O)NCCCOc1ccc(N(CC(F)(F)F)S(=O)(=O)C2CC3OC2C(c2ccc(-n4ccnc4)cc2)=C3c2ccc(O)cc2)cc1 (stereo unspecified)	8.7 µM	> 100 µM	> 100 µM		9.5 µM	6.4 µM	25 µM			> 79 µM
Cc1ncsc1-c1ccc([C@@H](C)NC(=O)[C@H]2C[C@H](O)CN2C(=O)[C@H](NC(=O)COCCOCCOCCOc2ccc(N(CC(F)(F)F)S(=O)(=O)C3CC4OC3C(c3ccc(-n5ccnc5)cc3)=C4c3ccc(O)cc3)cc2)C(C)(C)C)cc1 (stereo partly specified)	0.51 µM	> 100 µM	2.6 µM	Active	100 µM	> 100 µM	7.3 µM			
N#Cc1ccc(C(c2ccc(C#N)cc2)n2cncn2)cc1 [LETROZOLE]		> 100 µM						Active	Active	
Cc1ncsc1-c1ccc([C@H](C)NC(=O)[C@@H]2C[C@@H](O)CN2C(=O)[C@@H](NC(=O)CCCCOc2ccc(N(CC(F)(F)F)S(=O)(=O)C3CC4OC3C(c3ccc(-n5ccnc5)cc3)=C4c3ccc(O)cc3)cc2)C(C)(C)C)cc1 (stereo partly specified)	0.6 µM	> 100 µM	0.32 µM	Active	> 100 µM	100 µM	2.2 µM			
Cc1ncsc1-c1ccc([C@H](C)NC(=O)[C@@H]2C[C@@H](O)CN2C(=O)[C@@H](NC(=O)CCCCCOc2ccc(N(CC(F)(F)F)S(=O)(=O)C3CC4OC3C(c3ccc(-n5cncn5)cc3)=C4c3ccc(O)cc3)cc2)C(C)(C)C)cc1 (stereo partly specified)	0.56 µM	> 100 µM	> 100 µM		4 µM	0.69 µM	0.63 µM			
Cc1ncsc1-c1ccc([C@H](C)NC(=O)[C@@H]2C[C@@H](O)CN2C(=O)[C@@H](NC(=O)CCCCCCCCOc2ccc(N(CC(F)(F)F)S(=O)(=O)C3CC4OC3C(c3ccc(-n5ccnc5)cc3)=C4c3ccc(O)cc3)cc2)C(C)(C)C)cc1 (stereo partly specified)	1.3 µM	> 100 µM	> 100 µM	Active	100 µM	1.8 µM	1.4 µM			> 79 µM
Cc1ncsc1-c1ccc([C@H](C)NC(=O)[C@@H]2C[C@@H](O)CN2C(=O)[C@@H](NC(=O)COCCOCCOCCOCCOc2ccc(N(CC(F)(F)F)S(=O)(=O)C3CC4OC3C(c3ccc(-n5ccnc5)cc3)=C4c3ccc(O)cc3)cc2)C(C)(C)C)cc1 (stereo partly specified)	2.4 µM	> 100 µM	0.64 µM	Active	100 µM	26 µM	17 µM			

From ChEMBL document CHEMBL5512683, “Discovery of Novel ERα and Aromatase Dual-Targeting PROTAC Degraders to Overcome Endocrine-Resistant Breast Cancer” (J Med Chem, 2024)
